For 91 compounds, IC50 results are on record in PubChem BioAssay AID1159558 (GlaxoSmithKline (GSK), 2015).

In general, IC50 refers to the midpoint of a concentration-inhibition curve.

SMILES strings stand for the structures. The source made the active and inactive calls.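 How the source made its calls: active means IC50 against T. cruzi CYP51 below a set limit; inactive means the rest.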

The target in this experiment is Sterol 14-alpha demethylase (Trypanosoma cruzi (strain CL Brener)) (UniProt Q7Z1V1). Briefly: TcCYP51 inhibitors, dose response, mechanism study for T. cruzi antiparasitic project, biochemical, recombinant enzyme (AID 1159558).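 Further: enzyme in bacterial membranes with Anopheles gambiae CYP reductase and cytochrome b5 partners.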 The note with it: recombinant T. cruzi CYP51, BOMCC fluorescence.
Sequence of Sterol 14-alpha demethylase (Trypanosoma cruzi (strain CL Brener)) (Q7Z1V1 whole entry, looked up): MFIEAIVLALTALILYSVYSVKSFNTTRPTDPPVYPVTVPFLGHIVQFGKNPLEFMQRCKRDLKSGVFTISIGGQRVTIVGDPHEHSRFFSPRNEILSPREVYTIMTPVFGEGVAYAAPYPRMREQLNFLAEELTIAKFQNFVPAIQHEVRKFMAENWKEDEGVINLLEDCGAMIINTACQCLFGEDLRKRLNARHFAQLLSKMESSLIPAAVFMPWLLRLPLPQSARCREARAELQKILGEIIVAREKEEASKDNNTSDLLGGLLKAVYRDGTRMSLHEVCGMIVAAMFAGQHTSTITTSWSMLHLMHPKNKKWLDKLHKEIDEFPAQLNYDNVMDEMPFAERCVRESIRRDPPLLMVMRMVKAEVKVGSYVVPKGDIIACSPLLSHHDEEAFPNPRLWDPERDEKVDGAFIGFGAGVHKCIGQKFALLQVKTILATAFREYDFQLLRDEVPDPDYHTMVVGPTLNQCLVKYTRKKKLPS
In the case of `CCOc1ccc(N(C)S(=O)(=O)c2ccc3[nH]cc(C(=O)NC4CCCC4)c(=O)c3c2)cc1`, the IC50 is 6.3 µM.
As for `COc1ccc2nccc([C@H](O)CN3CC[C@H](NC(=O)c4ccc(Br)cc4)[C@@H](O)C3)c2n1`, the figure is 6.3 µM; as for `O=c1cc(NCCCNC2CCOc3c(I)cc(Cl)cc32)[nH]c2ccccc12` (stereo unspecified), 16 µM; as for `CCOc1ccc(CN(C)Cc2nc(N)nc(Nc3ccc(C)cc3)n2)cc1`, 16 µM.
For `CCc1c(C)nc(-n2nc(C)cc2NC(=O)COc2ccccc2F)[nH]c1=O` the value was > 100 µM (inactive); for `Cc1nn(-c2nc(N)nc(-c3ccccn3)n2)c(N)c1-c1ccccc1`, > 100 µM (inactive).
Regarding `O=c1oc2ccccc2n1C1CCN(Cc2ccccc2-c2cccnc2)CC1`, the IC50 was 0.1 µM.
Turning to `Clc1ccc(Sc2cnccc2N2CCOCC2)cc1`, the IC50 is 0.032 µM.
For `CCOc1ccc(NC(=O)C=Cc2ccc(CC)o2)cc1` the value was > 100 µM (inactive); for `COc1cccc(-c2cc(C(F)(F)F)nc(-n3ccc([N+](=O)[O-])n3)n2)c1`, > 100 µM (inactive); for `COc1cccc2sc(CN(C)C(=O)C3CNCCN3c3ccc(F)cc3)c(C)c12` (stereo unspecified), 0.25 µM.
For `Cc1ccc(C)c(CN2C(=O)NC3(CCc4ccccc43)C2=O)c1` (stereo unspecified) the value was 40 µM.
As for `NC(=O)c1cc(F)ccc1Nc1nc(NC2CCC(O)CC2)ncc1Br` (stereo unspecified), the figure is 10 µM.
As for `CC(=O)Nc1ccc(Nc2nccc(-c3cnn4ncccc34)n2)cc1C(F)(F)F`, the IC50 is 32 µM.
As for `CCS(=O)(=O)Nc1ccc(C2=NN(C(=O)c3cccs3)C(c3ccccc3OC)C2)cc1` (stereo unspecified), the figure is 25 µM.
For `Cc1cnc(Nc2cc(Cc3ccccc3)nc(NC3CCC(O)CC3)n2)s1` (stereo unspecified) the value was > 100 µM (inactive).
As for `O=C(CSc1ccc(-c2ccccn2)nn1)Nc1ccc(Cl)cc1`, the figure is > 100 µM (inactive); as for `N#Cc1cccc(CN2CCC(N(Cc3cccnc3)C(=O)c3cc(F)c(F)cc3F)CC2)c1`, 0.05 µM.
Take `CN(C)CCN(C)Cc1ccc(F)cc1NS(=O)(=O)c1ccc(Cl)c(Cl)c1`: the IC50 was > 130 µM (inactive).
On to `NCC(Cc1ccccc1)NC(=O)c1cnc(-c2c[nH]c3ncccc23)s1` (stereo unspecified), for which the half-maximal inhibitory concentration (IC50) is 1 µM.
For `COc1ccc(S(=O)(=O)NCc2ccc(-c3ccc(CN(C)CCO)cc3)cc2)cc1` the value was 16 µM; for `CC(C)(C)c1csc(NC(=O)c2ccc([N+](=O)[O-])s2)n1`, 7.9 µM; for `CN(C)S(=O)(=O)c1ccc(-c2cnc(N)c(-c3nc4ccc(F)cc4[nH]3)c2)cc1`, 40 µM.
For `Cc1[nH]n2c(=O)c3c(nc2c1-c1ccc(Br)cc1)CCCC3` the value was > 100 µM (inactive); for `NS(=O)(=O)c1ccc(CNC(=O)c2ccc([N+](=O)[O-])s2)cc1`, 40 µM; for `CN(C(=O)Nc1ccc2c(c1)CCN(C1CCC1)CC2)c1ccc(C#N)cc1`, > 100 µM (inactive).
In the case of `COc1ccc(-c2cnc(NC(=O)c3cc(-c4ccccn4)n[nH]3)n2C)cc1`, the IC50 is 16 µM.
As to `CNc1cncc(C2CCCN2C(=O)Cc2ccc3ccccc3c2)n1` (stereo unspecified), the IC50 was 0.1 µM.
As for `COc1cccc(NS(=O)(=O)c2ccc3[nH]cc(C(=O)NCCC(C)C)c(=O)c3c2)c1`, the figure is 6.3 µM; as for `CC1CN(S(=O)(=O)c2ccc(NC(=O)c3cc(C4CC4)nc4c3cnn4C(C)C)cc2)CC(C)O1` (stereo unspecified), > 100 µM (inactive).
As for `CCCNC(=O)Nc1cccc(-c2nc3ncccc3o2)c1`, the figure is > 100 µM (inactive); as for `O=C(c1ccc(O)c(Cl)c1)N1CCN(c2cnccn2)CC1`, > 100 µM (inactive).
For the compound `O=C(NCCc1ccn(-c2ccccc2)n1)C1CCCCC1`, the IC50 was 100 µM.
For the compound `C[C@@H](Oc1cc(-n2cnc3cc(N)ccc32)sc1C(N)=O)c1ccccc1Cl`, the IC50 was 3.2 µM.
As for `COc1ccc2ncc(=O)n(CCN3CCC(NCc4ccc(-c5cccs5)cc4)CC3)c2n1`, the figure is 25 µM; as for `Cc1cccc(Nc2nc(-c3ccccn3)cs2)n1`, 20 µM; as for `O=C(NNC(=O)c1ccccn1)c1ccc(-c2ccccc2)cc1`, 32 µM.
Regarding `CNc1c(C(N)=O)c(-c2ccc3scnc3c2)nn1CC(F)(F)F`, the IC50 was > 100 µM (inactive).
For `O=C(COc1ncnc2cc([N+](=O)[O-])ccc12)NC(=O)NC1CCCCC1` the value was > 100 µM (inactive); for `CN1CCC(N(C)c2nccc(N3CCN(C(=O)c4cccc(-c5cccnc5)c4)CC3)n2)CC1`, 1.6 µM.
For `COc1ccc(CNc2cc(C3CC3)nc(-c3nccn3C)n2)cc1` the value was 5 µM; for `O=C(NCCCn1cnc2ccccc21)c1ccc(NC(=O)c2ccco2)cc1`, 16 µM; for `O=C(NCc1nnc2n1CCCCC2)c1ccc(-c2ccc(F)cc2)o1`, 79 µM.
As for `CC1CCCCN1C(=O)NCCc1coc(-c2ccc(F)cc2)n1` (stereo unspecified), the figure is > 100 µM (inactive); as for `CN(Cc1ccccc1)Cc1nnnn1C1CCN(Cc2ccc(-n3ccnc3)cc2)CC1`, 0.05 µM.
Turning to `O=C(NCCc1ccccc1Cl)c1cccn1-c1cccnc1`, the IC50 was 0.079 µM.
For `c1ccc(-c2nc(NCc3ccco3)c3ccccc3n2)nc1` the value was > 100 µM (inactive); for `CCC(=O)N1N=C(c2ccc3c(c2)CCCC3)Sc2c1ncn2C(=O)CC`, > 100 µM (inactive).
For the compound `c1ccc(CCNCc2cncc3nc(-c4cnccn4)n(C4CCCCC4)c23)cc1`, the IC50 is 0.1 µM.
As for `COc1ccc(C(=O)Nc2ccc(NC(=O)CO)cc2)cc1`, the figure is > 100 µM (inactive); as for `Cc1ccc(NC(=O)c2ccc([N+](=O)[O-])s2)cc1S(=O)(=O)N1CCOCC1`, 20 µM; as for `CCCn1c(NC(=O)CCn2cc(Br)cn2)nc2ccccc21`, 10 µM.
As to `O=C(Cc1ccccc1)Nc1[nH]nc2sc(C(=O)NC3CCCC3)cc12`, the IC50 was 32 µM.
As for `c1ccc(Nc2nc(-c3ccccn3)cc(N3CCOCC3)n2)cc1`, the figure is > 100 µM (inactive).
Consider `Cc1cccnc1CN1CCN(CCCOc2ccc(-c3ccc(C(N)=O)cc3)cc2)CC1`, for which the IC50 is > 100 µM (inactive).
As for `CC(=O)Nc1nc(-c2cc(C)ccc2C)c(C)s1`, the figure is > 100 µM (inactive).
For `N#Cc1cc([N+](=O)[O-])ccc1NC1CCCCCC1` the value was > 100 µM (inactive).
For `CC1=NN(C(=O)CCn2cnc([N+](=O)[O-])n2)C(O)(C(F)(F)F)C1` (stereo unspecified) the value was > 100 µM (inactive); for `O=C(NCCc1csc(-c2ccc(F)cc2)n1)c1ccco1`, > 100 µM (inactive); for `CCn1c(NC(=O)Cc2ccc(F)cc2)nc2ccccc21`, 25 µM.
In the case of `COc1cccc(S(=O)(=O)Nc2ccc3c(c2)CC(N2CCC(NC(=O)C4CC4)CC2)C3)c1` (stereo unspecified), the IC50 was 63 µM.
As for `Cc1[nH]nc(Nc2ccnc3[nH]ccc23)c1C`, the figure is 79 µM.
For `Nc1nc(-c2ccccn2)nc(-n2nc(-c3ccccc3)cc2N)n1` the value was > 100 µM (inactive); for `CC(Cn1ccnc1)NC(=O)C=Cc1ccc(Cl)cc1` (stereo unspecified), 0.16 µM.
As for `C=CCn1nc([N+](=O)[O-])nc1Oc1ccc(Cl)cc1Cl`, the figure is 20 µM; as for `COCCn1c(-c2ccc3c(c2)OCO3)cnc1NCc1ccccc1OC`, 5 µM.
As to `Cc1[nH]nc(C(F)(F)F)c1NC(=O)CCn1cc(Cl)c([N+](=O)[O-])n1`, the IC50 was > 100 µM (inactive).
As for `COc1ccc2ncc(F)c(CCN3CC[C@@H](NC(=O)c4cc5c(s4)CCC5)[C@@H](O)C3)c2n1`, the figure is 1.3 µM.
On to `CN(C)Cc1ccc(-c2ccc(S(=O)(=O)NCC3CCCO3)c(F)c2)cc1` (stereo unspecified), for which the IC50 was 40 µM.
For `O=C(Nc1n[nH]c(-c2ccccn2)n1)C1CC1c1ccccc1` (stereo unspecified) the value was > 100 µM (inactive); for `O=C(NCc1ccc(-n2cccc2)cc1)c1nc(Cn2ccc([N+](=O)[O-])n2)no1`, > 100 µM (inactive).
As for `CN(Cc1cc2ccccc2s1)c1ncc2c(N)nc(N)nc2n1`, the figure is > 100 µM (inactive).
As for `Cc1ccc(NC(C)C(=O)Nc2ccc(C#N)cc2)cc1S(=O)(=O)N1CCCCC1` (stereo unspecified), the IC50 was 16 µM.
As for `CC(C)c1nn(-c2nc(N)nc(-c3ccccn3)n2)c(N)c1C1CCCCC1`, the figure is 3.2 µM.
As for `O=C(Nc1cccc(Cl)c1)Nc1ccc([N+](=O)[O-])cc1Cl`, the figure is 5 µM.
As for `O=C(c1cccc(Cl)c1Cl)N1CCn2c1nc(-c1ccncc1)cc2=O`, the figure is 0.063 µM; as for `CC(=O)Nc1ccc(CN2CCC(N3CC(c4ccccc4)(c4ccccc4)OCC3=O)CC2)cc1`, > 100 µM (inactive); as for `CCN(CC)c1ncc(C(=O)c2ccc([N+](=O)[O-])o2)s1`, 40 µM.
Turning to `Cc1cc2cc(CNc3ccc4c(c3)OCO4)c(=O)n(CCO)c2cc1C`, the IC50 is 10 µM.
As for `COc1ccc(S(=O)(=O)Nc2ccc(CN3CCN(C(=O)c4cccc(C#N)c4)CC3)cc2)cc1`, the figure is > 100 µM (inactive).
For `Fc1ccccc1N1C[C@H]2CCN(c3cccnc3)C[C@H]2C1` the value was 0.063 µM; for `Cc1nn(C)c(Cl)c1CN(Cc1cccnc1)Cc1ccsc1`, 0.063 µM; for `O=C1COC(c2ccccc2)(c2ccccc2)CN1C1CCN(Cc2ccc(-n3ccnc3)cc2)CC1`, 0.079 µM.
In the case of `O=C(COc1nn(-c2ccccc2)c2ncccc12)NCc1ccccc1`, the IC50 was 6.3 µM.
For `N#Cc1cc(N2CCCC2=O)ccc1Sc1ccccc1CO` the value was 20 µM; for `O=C(NCC1CCCCC1)c1cnns1`, > 100 µM (inactive); for `CCC(=O)Nc1ccccc1C(=O)Nc1ccccn1`, > 100 µM (inactive).
For `COc1ccc(C2CC(c3ccccc3Cl)=NN2C(=O)CNC(=O)C2CCCC2)cc1` (stereo unspecified) the value was 63 µM; for `O=C(Nc1nccs1)c1ccccc1Cn1cc([N+](=O)[O-])cn1`, > 100 µM (inactive).
As for `CN1CCN(c2nc(-c3ccc(Cl)cc3)c3c(N)n(C)nc3n2)CC1`, the figure is > 100 µM (inactive); as for `CC(C)c1cc(Nc2cc(Cc3ccccc3)nc(NC3CCC(O)CC3)n2)n[nH]1` (stereo unspecified), 20 µM.
